According to patent US5684013A, “Tricyclic compounds useful for inhibition of g-protein function and for treatment of proliferative diseases” (Schering Corporation, priority 1995, dated 1997):
pIC50: −log10 of the molar value. Read-outs that look alike come from different tables or passages of the source.

Columns and labels:
[1] = target: T1, geranylgeranyl protein transferase (GGPT) I (Rattus norvegicus, UniProt P53610+Q04631); assay: In vitro enzyme assay: inhibition of geranylgeranyl protein transferase (GGPT) I, Ras-CVLL as acceptor; type: biochemical
T1 construct: were partially purified from rat brain by ammonium sulfate fractionation; from tissue; host or cells: rat brain
From the text: (§1) 1. In vitro enzyme assays: Inhibition of farnesyl protein transferase and geranylgeranyl protein transferase.
Both farnesyl protein transferase (FPT) and geranylgeranyl protein transferase (GGPT) I were partially purified from rat brain by ammonium sulfate fractionation followed by Q-Sepharose (Pharmacia, Inc.) anion exchange chromatography essentially as described by Yokoyama et al (Yokoyama, K., et al., (1991), A protein geranylgeranyltransferase from bovine brain: Implications for protein prenylation specificity, Proc. Natl. Acad. Sci USA 88: 5302-5306, the disclosure of which is incorporated herein by reference thereto). Human farnesyl protein transferase was also expressed in E. coli, using cDNA clones encoding both the a and b subunits. The methods used were similar to those published (Omer, C. et al., (1993), Characterization of recombinant human farnesyl protein transferase: Cloning, expression, farnesyl diphosphate binding, and functional homology with yeast prenyl-protein transferases, Biochemistry 32:5167-5176). Human farnesyl protein transferase was partially-purified from the soluble protein fraction of E. coli as described above. the tricyclic farnesyl protein transferase inhibitors disclosed herein inhibited both human and rat enzyme with similar potencies. […]

[2] = test system: Normal human HEPM fibroblasts; assay: Cell Mat Assay: inhibition of normal cell growth (cell mat); type: cell-based; conditions: Fibroblast, mIC50, normal cell monolayer
Description: (§2) Normal human HEPM fibroblasts were planted in 3.5 cm dishes at a density of 5×10^4 cells/dish in 2 ml growth medium, and incubated for 3-5 d to achieve confluence. Medium was aspirated from each dish and the indicator tumor cells, T24-BAG4 human bladder carcinoma cells expressing an activated H-ras gene, were planted on top of the fibroblast monolayer at a density of 2×10^3 cells/dish in 2 ml growth medium, and allowed to attach overnight. Compound-induced colony inhibition was assayed by addition of serial dilutions of compound directly to the growth medium 24 h after tumor cell planting, and incubating cells for an additional 14 d to allow colony formation. Assays were terminated by rinsing monolayers twice with phosphate-buffered saline (PBS), fixing the monolayers with a 1% glutaraldehyde solution in PBS, then visualizing tumor cells by staining with X-Gal (Price, J., et al., Lineage analysis in the vertebrate nervous system by retrovirus-mediated gene transfer, Proc. Natl. Acad. Sci. 84, 156-160(1987)). In the colony inhibition assay, compounds were evaluated on the basis of two IC50 values: the concentration of drug required to prevent the increase in tumor cell number by 50% (tIC50) and the concentration of drug required to reduce the density of cells comprising the cell mat by 50% (mIC50). Both IC50 values were obtained by determining the density of tumor cells and mat cells by visual inspection and enumeration of cells per colony and the number of colonies under the microscope. The therapeutic index of the compound was quantitatively expressed as the ratio of mIC50 /tIC50, with values greater than one indicative of tumor target specificity.

[3] = test system: T24-BAG4 human bladder carcinoma cells; assay: Cell Mat Assay: inhibition of tumor cell growth; type: cell-based; conditions: 336 h, tIC50, 14 d colony formation
Description: as §2

[4] = target: T2, farnesyl protein transferase (FPT) (Rattus norvegicus, UniProt Q02293+Q04631); assay: In vitro enzyme assay: inhibition of farnesyl protein transferase (FPT), Ras-CVLS farnesylation; type: biochemical
T2 construct: were partially purified from rat brain by ammonium sulfate fractionation; from tissue; host or cells: rat brain
From the text: as §1
Both farnesyl protein transferase (FPT) and geranylgeranyl protein transferase (GGPT) I were partially purified from rat brain by ammonium sulfate fractionation followed by Q-Sepharose (Pharmacia, Inc.) anion exchange chromatography essentially as described by Yokoyama et al (Yokoyama, K., et al., (1991), A protein geranylgeranyltransferase from bovine brain: Implications for protein prenylation specificity, Proc. Natl. Acad. Sci USA 88: 5302-5306, the disclosure of which is incorporated herein by reference thereto). Human farnesyl protein transferase was also expressed in E. coli, using cDNA clones encoding both the a and b subunits. The methods used were similar to those published (Omer, C. et al., (1993), Characterization of recombinant human farnesyl protein transferase: Cloning, expression, farnesyl diphosphate binding, and functional homology with yeast prenyl-protein transferases, Biochemistry 32:5167-5176). Human farnesyl protein transferase was partially-purified from the soluble protein fraction of E. coli as described above. the tricyclic farnesyl protein transferase inhibitors disclosed herein inhibited both human and rat enzyme with similar potencies. Two forms of val^12 -Ha-Ras protein were prepared as substrates for these enzymes, differing in their carboxy terminal sequence. One form terminated in cysteine-valine-leucine-serine (Ras-CVLS) the other in cystein-valine-leucine-leucine (Ras-CVLL). Ras-CVLS is a substrate for the farnesyl protein transferase while Ras-CVLL is a substrate for geranylgeranyl protein transferase I. The cDNAs encoding these proteins were constructed so that the proteins contain an amino-terminal extension of 6 histidine residues. Both proteins were expressed in Escherichia coli and purified using metal chelate affinity chromatography. The radiolabelled isoprenyl pyrophosphate substrates, [^3 H]farnesyl pyrophosphate and [^3 H]geranylgeranyl pyrophosphate, were purchased from DuPont/New England Nuclear.
Several methods for measuring farnesyl protein transferase activity have been described (Reiss et al 1990, Cell 62: 81; Schaber et al 1990, J. Biol. Chem. 265: 14701; Manne et al 1990, PNAS 87: 7541; and Barbacid & Manne 1993, U.S. Pat. No. 5,185,248). The activity was assayed by measuring the transfer of [^3 H]farnesyl from [^3 H]farnesyl pyrophosphate to Ras-CVLS using conditions similar to those described by Reiss et al. 1990 (Cell 62: 81) The reaction mixture contained 40 mM Hepes, pH 7.5; 20 mM magnesium chloride; 5 mM dithiothreitol; 0.25 μM [^3 H]farnesyl pyrophosphate; […] Q-Sepharose-purified farnesyl protein transferase; the indicated concentration of tricyclic compound or dimethylsulfoxide (DMSO) vehicle control (5% DMSO final); and […] Ras-CVLS in a total volume of […]. The reaction was allowed to proceed for 30 minutes at room temperature and then stopped with 0.5 ml of 4% sodium dodecyl sulfate (SDS) followed by 0.5 ml of cold 30% trichloracetic acid (TCA). Samples were allowed to sit on ice for 45 minutes and precipitated Ras protein was then collected on GF/C filter paper mats using a Brandel cell harvester. Filter mats were washed once with 6% TCA, 2% SDS and radioactivity was measured in a Wallac 1204 Betaplate BS liquid scintillation counter. Percent inhibition was calculated relative to the DMSO vehicle control.

[5] = test system: Ras-CVLS processing in COS monkey kidney cells; assay: Cell-Based Assay: Ras-CVLS processing in transfected COS monkey kidney cells; conditions: Primates, read-out: COS IC50 (inhibition of Ras-CVLS processing)
From the text: 2. Cell-Based Assay: Transient expression of val^12 -Ha-Ras-CVLS and val^12 -Ha-Ras-CVLL in COS monkey kidney cells: Effect of farnesyl protein transferase inhibitors on Ras processing and on disordered cell growth induced by transforming Ras.
COS monkey kidney cells were transfected by electroporation with the plasmid pSV-SPORT (Gibco/BRL) containing a cDNA insert encoding either Ras-CVLS or Ras-CVLL, leading to transient overexpression of a Ras substrate for either farnesyl protein transferase or geranylgeranyl protein transferase I, respectively (see above). […]
Membranes were blocked by incubation overnight at 4° C. in PBS containing 2.5% dried milk and 0.5% Tween-20 and then incubated with a Ras-specific monoclonal antibody, Y13-259 (Furth, M. E., et al., (1982), Monoclonal antibodies to the p21 products of the transforming gene of Harvey murine sarcome virus and of the cellular ras gene family, J. Virol. 43: 294-304), in PBS containing 1% fetal calf serum for one hour at room temperature. […] The presence of processed and unprocessed Ras-CVLS or Ras-CVLL was detected using a colorimetric peroxidase reagent (4-chloro-1-naphthol) as described by the manufacturer (Bio-Rad).

[6] = Table 3, comparison of FPT and GGPT inhibition, read-out: ENZYME INHIBITION FPT IC50

Compound	pIC50 ([1]; Table 3)	pIC50 [2]	pIC50 [3]	pIC50 ([4]; Table 2, read-out: FPT IC50)	pIC50 [4, 6]	pIC50 ([1]; Table 3, unit printed in the cell)	pIC50 [5]
O=S(=O)(c1cccs1)N1CCC/C(=C2\c3ccc(Cl)cc3CCc3cccnc32)C1 [Compound E-1G]	> 4.89	< 4.60	4.90	> 6.36	6.33	–	–
O=S(=O)(c1ccccc1)N1CCC/C(=C2\c3ccc(Cl)cc3CCc3cccnc32)C1 [Compound E-2E]	–	< 4.30	> 5.51	6.15	6.15	5.13	5.60
O=S(=O)(c1ccccc1)N1CC/C(=C2\c3ccc(Cl)cc3CCc3cccnc32)C1 [Compound E-2]	–	–	–	6.23	–	–	< 5.30
